The assay relates to unidentified fungal strain having an appearance similar to powdery mildew. Description: Visual inspection of fungal infection on greenhouse mother plants. Conditions: 1.2 mg chlorine dioxide gas per hour per 4000 cubic feet, 4500 mother plants. It counts as in vivo. As for the experimental part:
An experimental trial was performed in a greenhouse with approximately 1×10^6 cubic feet of space holding 4500 mother plants. All plants were potted in soil and were approximately 5-7 feet tall, depending on whether cuttings had recently been taken for clone propagation. Plants evidenced visible signs of infection with an unidentified fungal strain having an appearance similar to powdery mildew. The fungus was actively growing and covered most leaves and major stalks. The fungus was a strain that only infected the surface of the plants and was not systemic in the plants.
Treatment was performed using 1.2 mg chlorine dioxide gas per hour per 4000 cubic feet. Spore trap testing was performed pre-treatment and at seven days post-treatment. The fungus could not be detected by visual inspection after about 30 days of treatment. Treatment continued as a preventative measure, with further spore trap testing at 45 days post treatment. Spore trap data follows below in Table 5.

As for `[O][Cl+][O-]` [chlorine dioxide], the “time of treatment after which the fungus could not be detected by visual inspection” value is listed as “about 30 days”.

Values taken from patent publication US12329159B2, “Systems and methods for use of chlorine dioxide in cultivation and post-harvest applications” (Prokure Solutions, LLC, priority 2018, dated 2025).
